Patent publication US12527872B2, “PEGylated ICD inducer-IDO inhibitor nanoconjugate, and preparation method and use thereof” (SHANDONG UNIVERSITY, priority 2019, dated 2026)

Columns and labels:
[1] = system: 4T1 cells; assay: In vivo inhibition of breast tumor growth (4T1 breast cancer model); conditions: BALB/c mice injected with 4T1 cells, treated every three days; compared with saline control; FIG. 8
Method: To evaluate the efficacy of diMT-OXA(IV)-PEG 2000 nanoconjugate in inhibiting tumor growth in vivo, a model of animal with breast cancer was established. 4T1 cells were injected intravenously in BALB/c mice. 4T1 cells spontaneously generate tumors in BALB/c mice, and the characteristics of these tumors are very similar to breast cancer in humans. The BALB/c mice injected with 4T1 cells were treated every three days with free OXA, free 1-MT, free 1-MT plus OXA, and diMT-OXA(IV)-PEG 2000 nanoconjugate, and were treated with saline as control. After the course of treatment, tumor masses were collected from the experimental mice to measure tumor volume to assess general anti-tumor effects (see […]). It can be learned from FIG. 8 that the tumor volume is reduced in mice treated with free OXA, free 1-MT, and free 1-MT plus OXA, and the tumor volume is reduced in mice treated with diMT-OXA(IV)-PEG 2000 nanoconjugate to more than about 50% of that in mice treated with saline as control.

[2] = system: 4T1 cells; assay: In vitro anti-tumor viability test (CCK-8); type: cell-based; conditions: different concentrations, 48 h, CCK-8, absorbance at 450 nm; FIG. 10
Method: 4T1 cells were incubated in a 96-well plate (8000 cells/well) with a volume of 100 μL per well. After the incubation, the 96-well plate was placed in an incubator to culture at 37° C. under 5% CO2 overnight. 100 μL of free OXA and diMT-OXA(IV)-PEG 2000 nanoconjugate (in different concentrations) were added. After culture in the incubator at 37° C. under 5% CO2 for 48 h, 10 μL of CCK-8 solution was added into each well and then cultured in the incubator at 37° C. under 5% CO2 for 2 h. The absorbance was measured at 450 nm by an ELISA reader, and the cell viability was calculated.

Row | Compound | tumor volume [1] | inhibitory effect on the proliferation of 4T1 cells (cell viability) [2]
1 | Cn1cc(C[C@@H](N)C(=O)O)c2ccccc21 [free 1-MT, 1-methyl-D-tryptophan] | reduced | 
2 | O=C1[O][Pt]2([NH][C@@H]3CCCC[C@H]3[NH]2)[O]C1=O [free OXA, oxaliplatin] | reduced | good inhibitory effect
